Here are results for one compound from PMC7395176, “Retromer stabilization results in neuroprotection in a model of Amyotrophic Lateral Sclerosis” (Nature Communications, 2020).

SMILES strings stand for the structures. Several values for one entry are separate records, joined by “and”; a condition that tells them apart may be missing. Equal values may be shown once.

In data set [1] the test system is Vps35, Vps26, and Vps29 mRNAs. The data set is described as follows: Real-time PCR of CRC genes in Neuro2a cells. It counts as cell-based. The following applies: 10 μM, 48 h. The source says: Lumbar spinal tracts dissected from saline-perfused mice or Neuro2A cells were lysed to extract total RNAs using the RNeasy Mini Kit (Qiagen) according to the manufacturer’s recommendations, including DNase (Promega) digestion. We synthetized the cDNA using ThermoScript RT-PCR System (Invitrogen) and Random Hexamer (Invitrogen), according to the manufacturer’s instructions. The LightCycler 480 System (Roche) and LightCycler 480 SYBR Green I Master Mix (Roche) were used for real-time PCR experiments. Normalization was obtained using the housekeeping gene Histone H3:
Compound 2a stabilizes VPS35 levels in Neuro2a cells
A cycloheximide (CHX) chase assay was performed to determine the degradation rate of VPS35 in Neuro2a cells (3x10^5 cells/well). Cells were treated with vehicle or 2a (10 µM) for 24 h, and then chased with CHX (10 µg/mL) for 2, 4 and 8h.
WBs for VPS35 and β-Actin levels. Quantifications of normalized VPS35 levels (means normalized ratios ± SEM versus the time 0) are shown inpanel b (vehicle: n=10 independent wells, 2a: n=8 independent wells obtained from 3 independent experiments; control vs. 2a at 8 hours: p=0.009). c, quantitative real time PCR for Vps35, Vps26 and Vps29 mRNA (Vps35: controls n=8 independent wells; 2a: n=9 independent wells; Vps26 and Vps29: n=9 independent wells/group); data were collected from 3 independent experiments. […]
A general note: In qPCR the cycle at which signal appears reflects the starting amount.

A further data set has as its system Neuro2a cells. The data set is described as follows: Neuro2a cell survival (CCK8) with increasing 2a concentrations. The format is cell-based. The following applies: 48 h. The method, then: We assessed the cytotoxicity of compound 2a, measuring survival of Neuro2a cells exposed to increasing 2a concentrations. […] We next checked for toxic effects of compound 2a in primary neuronal cultures coupled with Micro Electrode Array (MEA) devices. Mouse cortical neurons (E16.5) were plated on MEAs, kept in culture for 14 days to develop firing activity and recorded in presence of 2a.
Cell survival experiments were run on 96-well plates using Cell Counting Kit-8 (CCK8) survival kit (96992-Sigma–Aldrich) according the manufacturer’s recommendations. Compound 2a cytotoxicity was tested on Neuro2a cells receiving increasing amounts of compound 2a (1, 10, 50, 100, 200, 500, and 1000 µM) for 48 h. Data were acquired using an Epoch spectrophotometer equipped with the GEN5 (2.03.1) software (Agilent).

The subject of a further data set is CI-MPR. In words: CI-MPR fluorescence in MNs of treated G93A mice. It counts as in vivo. Conditions: 10 mg/kg, day 100. The source says: We next asked whether increasing VPS35/26 protein levels is sufficient to increase retromer functionality. CI-MPR is unstable in VPS26-knockout cells, and we observed a substantial reduction of CI-MPR MFI levels in MNs of vehicle-treated G93A mice compared with WT litters (Fig. 6c). […] Sortilin encodes a receptor belonging to the Vps10 family involved in Frontotemporal Dementia (FTD)[45], which shares functional homologies with MPRs and is another retromer cargo[46].
Fluorescence intensity levels of VPS35, VPS26, CI-MPR, Sortilin, CTSD and Ubiquitin were calculated using NHI-Image J software (US National Institutes of Health) according to the following protocol: stacks of confocal images were used to generate the maximal projections using the Leica Application Suite X (2.0.0.14332) software and then postprocessed by NHI-Image J to crop single NeuN^+ MNs from the ventral horn of the spinal cord. We next performed background (calculated on adjacent slices only receiving secondary antibodies) subtraction for each channel, before applying the NHI-Image J mean filter (with radius 2.0 pixels) to calculate mean NeuN fluorescence levels in individual MNs. Using this approach, we established a region of interest (ROI) to gate single MNs. On this ROI, we measured mean fluoresce levels (MFI) of target proteins.

The next data set has as its system Cathepsin D (CTSD). The data set is described as follows: Cathepsin D (CTSD) levels in treated G93A mice. It counts as in vivo. Conditions: 10 mg/kg, day 100. The source says:
We next investigated Cathepsin D (CTSD) expression and distribution in G93A mice, since its trafficking involves the retromer complex. In humans, CTSD maturation starts with a pre-pro-CTSD then converted to pro-CTSD (52 kDa) in the endoplasmic reticulum. Recycling of pro-CTSD and its downstream migration to acidic compartments involves CI-MPR and the retromer pathway. Pro-CTSD is further processed to an intermediate form in late endosomes (48 kDa), and finally converted to mature CTSD (34 kDa) in lysosomes. VPS35 inactivation[48] or VPS26 knockdown[21] affect CTSD maturation. We scored CTSD levels in lumbar SC extracts from vehicle-treated WT and vehicle- or 2a-treated G93A mice. […] We next analyzed CTSD levels and CTSD^+ puncta in MNs by confocal microscopy, observing their significant reduction in MNs of vehicle-treated G93A mice that was restored by treatment with compound 2a (Fig. 6f).
Fluorescence intensity levels of VPS35, VPS26, CI-MPR, Sortilin, CTSD and Ubiquitin were calculated using NHI-Image J software (US National Institutes of Health) according to the following protocol: stacks of confocal images were used to generate the maximal projections using the Leica Application Suite X (2.0.0.14332) software and then postprocessed by NHI-Image J to crop single NeuN^+ MNs from the ventral horn of the spinal cord. […] On this ROI, we measured mean fluoresce levels (MFI) of target proteins.

Consider `NC(N)=N/N=C/c1cccc(/C=N/N=C(N)N)c1` [compound 2a, phenyl-1,3-bis-guanylhydrazone], for which the “transcription levels of CRC genes (Vps35, Vps26, Vps29 mRNAs)” value in data set [1] is “did not influence”. Besides, the cell survival result in the data set with Neuro2a cells (10 μM) was “did not affect cell survival”. Also, the LD50 with Neuro2a cells (1–1000 µM) was 257.9 µM and ~260 µM. In the data set on CI-MPR, the “CI-MPR MFI levels in MNs” value is “significantly increased”. Also, in the data set on Cathepsin D (CTSD), the “CTSD levels and CTSD+ puncta in MNs (confocal)” value is given as “restored”; the “levels of mature CTSD (WB, lumbar SC extracts)” value is reported as “significantly increased”.
